# Test results reported in article PMC2909581 (Clinical cancer research : an official journal of the …, 2010).
# Like-named read-outs stand apart in the source and are kept apart here.
# Tests used:
# [1] = Sorafenib and N-oxide metabolite plasma pharmacokinetics; type: in vivo, human
# renal cancer = details: no prior VEGF inhibitor therapy; cited from earlier work
# Hsp90 = assay: Western blot of PBMC lysates: Hsp90 levels; type: in vivo, human
# [2] = in vivo
# clinical = type: in vivo, human
# kidney cancer = details: no prior VEGF inhibitor therapy, single agent; cited from earlier work
# melanoma = details: single agent; cited from earlier work
# [3] = Phase I toxicity assessment
# Tumor Hsp90 = details: cited from earlier work
# Hsp70 = assay: Western blot of PBMC lysates: Hsp70 levels; type: in vivo, human
# [4] = Maximum, Day 1, in combination with tanespimycin
# [5] = Maximum, Day −1, sorafenib given alone
# [6] = Minimum, Day 1, in combination with tanespimycin
# [7] = Minimum, Day −1, sorafenib given alone
# [8] = number of patients, tanespimycin 300 mg/m^2 (n = 3) + sorafenib
# [9] = number of patients, tanespimycin 350 mg/m^2 (n = 7) + sorafenib
# [10] = number of patients, tanespimycin 400 mg/m^2 (n = 11) + sorafenib
# [11] = number of patients, tanespimycin 450 mg/m^2 (n = 6) + sorafenib
compound,measurement,setting,value
CNC(=O)c1cc(Oc2ccc(NC(=O)Nc3ccc(Cl)c(C(F)(F)F)c3)cc2)ccn1 [sorafenib],AUClast,[1]; [4],146.8 µM·h
same,Cmax,[1]; [4],26.6 µM
same,Tmax,[1]; [4],10.0 h
same,AUClast,[1]; [5],181.2 µM·h
same,Cmax,[1]; [5],22.5 µM
same,Tmax,[1]; [5],10.0 h
same,AUClast,[1]; [6],46.7 µM·h
same,Cmax,[1]; [6],6.6 µM
same,Tmax,[1]; [6],1.0 h
same,AUClast,[1]; [7],44.3 µM·h
same,Cmax,[1]; [7],5.8 µM
same,Tmax,[1]; [7],1.0 h
same,AUC,"[1]; human, plasma, po",90.7 µM·h
same,Tmax,"[1]; human, plasma, po, 400 mg",1 to 10 h
same,mean steady-state trough levels,"[1]; plasma, sorafenib 400 mg twice daily",8.0 µM
same,time of chronic treatment until plasma concentration reached the steady-state,[1]; sorafenib 400 mg twice daily,7 days
same,effect of coadministration of 17-AAG on systemic exposure,[1]; sorafenib 400 mg twice daily with 17-AAG,did not significantly alter
same,response rate,renal cancer,10%
same,effect on Hsp90 levels,Hsp90; sorafenib therapy,not affected
same,patients requiring dose modifications,[2]; human,3 patients
same,patients with treatment interruptions,[2]; human,5 patients
same,predominant toxicities attributed,[2],hand-foot syndrome and diarrhea
"C=CCNC1=C2C[C@@H](C)C[C@H](OC)[C@H](O)[C@@H](C)/C=C(\C)[C@H](OC(N)=O)[C@@H](OC)/C=C\C=C(/C)C(=O)NC(=CC1=O)C2=O [tanespimycin, 17-demethoxy-allylaminogeldanamycin]",Cmax on days 1 and 15 compared,clinical; concurrent sorafenib,similar
same,half-life,"clinical; human, plasma, iv",3.6 h
same,Cmax (end of infusion) and AUC versus tanespimycin dose,clinical; intravenous infusion 300-450 mg/m^2,increased with increasing tanespimycin dose
same,clearance (Mean ± SD),"clinical; intravenous infusion, range 4.8 to 32.9 L/h/m^2",15.0 ± 7.9 L/h/m^2
same,response in phase II trial,kidney cancer,no objective responses
same,patient samples with decrease in Hsp90 levels,Hsp90; after tanespimycin therapy (on sorafenib),6 of the 14
same,response in phase II trial,melanoma,no objective responses or disease stabilization
same,patients with treatment interruptions,"[3]; human, in vivo",2 patients
same,recommended phase II dose,"[3]; in combination with sorafenib, intravenous, days 1, 8 and 15 every 28 days",400 mg/m^2
same,Diarrhea Grade1,[3]; [8],1
same,Diarrhea Grade2,[3]; [8],1
same,Diarrhea Grade3,[3]; [8],0
same,Diarrhea Grade4,[3]; [8],0
same,Fatigue Grade1,[3]; [8],3
same,Fatigue Grade2,[3]; [8],0
same,Fatigue Grade3,[3]; [8],0
same,Fatigue Grade4,[3]; [8],0
same,Hand-Foot syndrome Grade1,[3]; [8],1
same,Hand-Foot syndrome Grade2,[3]; [8],0
same,Hand-Foot syndrome Grade3,[3]; [8],0
same,Hand-Foot syndrome Grade4,[3]; [8],0
same,Headache Grade1,[3]; [8],1
same,Headache Grade2,[3]; [8],0
same,Headache Grade3,[3]; [8],0
same,Headache Grade4,[3]; [8],0
same,Liver function abnormality Grade1,[3]; [8],0
same,Liver function abnormality Grade2,[3]; [8],1
same,Liver function abnormality Grade3,[3]; [8],0
same,Liver function abnormality Grade4,[3]; [8],0
same,Nausea Grade1,[3]; [8],1
same,Nausea Grade2,[3]; [8],0
same,Nausea Grade3,[3]; [8],0
same,Nausea Grade4,[3]; [8],0
same,Other toxicity Grade1,[3]; [8],0
same,Other toxicity Grade2,[3]; [8],3
same,Other toxicity Grade3,[3]; [8],0
same,Other toxicity Grade4,[3]; [8],0
same,Bleeding Grade1,[3]; [9],1
same,Bleeding Grade2,[3]; [9],1
same,Bleeding Grade3,[3]; [9],0
same,Bleeding Grade4,[3]; [9],0
same,Creatinine Grade1,[3]; [9],1
same,Creatinine Grade2,[3]; [9],1
same,Creatinine Grade3,[3]; [9],0
same,Creatinine Grade4,[3]; [9],0
same,Diarrhea Grade1,[3]; [9],3
same,Diarrhea Grade2,[3]; [9],1
same,Diarrhea Grade3,[3]; [9],1
same,Diarrhea Grade4,[3]; [9],0
same,Emesis Grade1,[3]; [9],2
same,Emesis Grade2,[3]; [9],3
same,Emesis Grade3,[3]; [9],1
same,Emesis Grade4,[3]; [9],0
same,Fatigue Grade1,[3]; [9],2
same,Fatigue Grade2,[3]; [9],0
same,Fatigue Grade3,[3]; [9],0
same,Fatigue Grade4,[3]; [9],0
same,Hand-Foot syndrome Grade1,[3]; [9],0
same,Hand-Foot syndrome Grade2,[3]; [9],2
same,Hand-Foot syndrome Grade3,[3]; [9],0
same,Hand-Foot syndrome Grade4,[3]; [9],0
same,Headache Grade1,[3]; [9],1
same,Headache Grade2,[3]; [9],1
same,Headache Grade3,[3]; [9],0
same,Headache Grade4,[3]; [9],0
same,Hemoglobin Grade1,[3]; [9],1
same,Hemoglobin Grade2,[3]; [9],0
same,Hemoglobin Grade3,[3]; [9],0
same,Hemoglobin Grade4,[3]; [9],0
same,Liver function abnormality Grade1,[3]; [9],2
same,Liver function abnormality Grade2,[3]; [9],0
same,Liver function abnormality Grade3,[3]; [9],0
same,Liver function abnormality Grade4,[3]; [9],0
same,Myalgias Grade1,[3]; [9],1
same,Myalgias Grade2,[3]; [9],0
same,Myalgias Grade3,[3]; [9],0
same,Myalgias Grade4,[3]; [9],0
same,Nausea Grade1,[3]; [9],3
same,Nausea Grade2,[3]; [9],2
same,Nausea Grade3,[3]; [9],0
same,Nausea Grade4,[3]; [9],0
same,Other toxicity Grade1,[3]; [9],5
same,Other toxicity Grade2,[3]; [9],1
same,Other toxicity Grade3,[3]; [9],1
same,Other toxicity Grade4,[3]; [9],0
same,Platelets Grade1,[3]; [9],1
same,Platelets Grade2,[3]; [9],0
same,Platelets Grade3,[3]; [9],0
same,Platelets Grade4,[3]; [9],0
same,Creatinine Grade1,[3]; [10],0
same,Creatinine Grade2,[3]; [10],1
same,Creatinine Grade3,[3]; [10],0
same,Creatinine Grade4,[3]; [10],0
same,Diarrhea Grade1,[3]; [10],1
same,Diarrhea Grade2,[3]; [10],1
same,Diarrhea Grade3,[3]; [10],0
same,Diarrhea Grade4,[3]; [10],0
same,Dyspnea Grade1,[3]; [10],0
same,Dyspnea Grade2,[3]; [10],0
same,Dyspnea Grade3,[3]; [10],1
same,Dyspnea Grade4,[3]; [10],1
same,Emesis Grade2,[3]; [10],0
same,Emesis Grade3,[3]; [10],0
same,Emesis Grade4,[3]; [10],0
same,Fatigue Grade2,[3]; [10],2
same,Fatigue Grade3,[3]; [10],1
same,Fatigue Grade4,[3]; [10],0
same,Hand-Foot syndrome Grade1,[3]; [10],0
same,Hand-Foot syndrome Grade2,[3]; [10],3
same,Hand-Foot syndrome Grade3,[3]; [10],2
same,Hand-Foot syndrome Grade4,[3]; [10],0
same,Headache Grade1,[3]; [10],1
same,Headache Grade2,[3]; [10],0
same,Headache Grade3,[3]; [10],0
same,Headache Grade4,[3]; [10],0
same,Hemoglobin Grade1,[3]; [10],2
same,Hemoglobin Grade2,[3]; [10],1
same,Hemoglobin Grade3,[3]; [10],0
same,Hemoglobin Grade4,[3]; [10],0
same,Infection Grade1,[3]; [10],0
same,Infection Grade2,[3]; [10],1
same,Infection Grade3,[3]; [10],0
same,Infection Grade4,[3]; [10],0
same,Liver function abnormality Grade1,[3]; [10],1
same,Liver function abnormality Grade2,[3]; [10],0
same,Liver function abnormality Grade3,[3]; [10],0
same,Liver function abnormality Grade4,[3]; [10],0
same,Myalgias Grade1,[3]; [10],1
same,Myalgias Grade2,[3]; [10],0
same,Myalgias Grade3,[3]; [10],0
same,Myalgias Grade4,[3]; [10],0
same,Nausea Grade1,[3]; [10],6
same,Nausea Grade2,[3]; [10],1
same,Nausea Grade3,[3]; [10],1
same,Nausea Grade4,[3]; [10],0
same,Neutropenia Grade1,[3]; [10],0
same,Neutropenia Grade2,[3]; [10],0
same,Neutropenia Grade3,[3]; [10],1
same,Neutropenia Grade4,[3]; [10],0
same,Other toxicity Grade1,[3]; [10],3
same,Other toxicity Grade2,[3]; [10],3
same,Other toxicity Grade3,[3]; [10],2
same,Other toxicity Grade4,[3]; [10],0
same,Platelets Grade1,[3]; [10],2
same,Platelets Grade2,[3]; [10],0
same,Platelets Grade3,[3]; [10],0
same,Platelets Grade4,[3]; [10],0
same,Abdominal pain Grade1,[3]; [11],2
same,Abdominal pain Grade2,[3]; [11],0
same,Abdominal pain Grade3,[3]; [11],1
same,Abdominal pain Grade4,[3]; [11],0
same,Diarrhea Grade1,[3]; [11],2
same,Diarrhea Grade2,[3]; [11],0
same,Diarrhea Grade3,[3]; [11],1
same,Diarrhea Grade4,[3]; [11],0
same,Emesis Grade1,[3]; [11],1
same,Emesis Grade2,[3]; [11],0
same,Emesis Grade3,[3]; [11],0
same,Emesis Grade4,[3]; [11],0
same,Fatigue Grade1,[3]; [11],4
same,Fatigue Grade2,[3]; [11],1
same,Fatigue Grade3,[3]; [11],0
same,Fatigue Grade4,[3]; [11],0
same,Hand-Foot syndrome Grade1,[3]; [11],1
same,Hand-Foot syndrome Grade2,[3]; [11],1
same,Hand-Foot syndrome Grade3,[3]; [11],2
same,Hand-Foot syndrome Grade4,[3]; [11],0
same,Headache Grade1,[3]; [11],2
same,Headache Grade2,[3]; [11],0
same,Headache Grade3,[3]; [11],0
same,Headache Grade4,[3]; [11],0
same,Hemoglobin Grade1,[3]; [11],1
same,Hemoglobin Grade2,[3]; [11],0
same,Hemoglobin Grade3,[3]; [11],0
same,Hemoglobin Grade4,[3]; [11],0
same,Hypertension Grade1,[3]; [11],0
same,Hypertension Grade2,[3]; [11],1
same,Hypertension Grade3,[3]; [11],0
same,Hypertension Grade4,[3]; [11],0
same,Infection Grade1,[3]; [11],0
same,Infection Grade2,[3]; [11],0
same,Infection Grade3,[3]; [11],1
same,Infection Grade4,[3]; [11],0
same,Liver function abnormality Grade1,[3]; [11],0
same,Liver function abnormality Grade2,[3]; [11],0
same,Liver function abnormality Grade3,[3]; [11],0
same,Liver function abnormality Grade4,[3]; [11],1
same,Myalgias Grade1,[3]; [11],1
same,Myalgias Grade2,[3]; [11],0
same,Myalgias Grade3,[3]; [11],0
same,Myalgias Grade4,[3]; [11],0
same,Nausea Grade1,[3]; [11],4
same,Nausea Grade2,[3]; [11],0
same,Nausea Grade3,[3]; [11],0
same,Nausea Grade4,[3]; [11],0
same,Other toxicity Grade1,[3]; [11],3
same,Other toxicity Grade2,[3]; [11],0
same,Other toxicity Grade3,[3]; [11],1
same,Other toxicity Grade4,[3]; [11],0
same,Platelets Grade1,[3]; [11],0
same,Platelets Grade2,[3]; [11],0
same,Platelets Grade3,[3]; [11],1
same,Platelets Grade4,[3]; [11],0
same,patients requiring dose modifications,"[3]; sorafenib to 400 mg once daily, tanespimycin to one dose level lower",4 patients
same,higher binding affinity of tumor Hsp90 (multi-chaperone complexes),Tumor Hsp90,100 fold
same,patients with increase in Hsp70 level among those showing clinical benefit,Hsp70; after tanespimycin therapy,8 of the 10
same,samples with Hsp70 induction,Hsp70; after treatment with tanespimycin (on sorafenib),11 of 14
